From ChEMBL document CHEMBL1144127, “Montadial A, a cytotoxic metabolite from Bondarzewia montana” (J Nat Prod, 1999)
The source made the active and inactive calls.

Key:
HL-60 = test: Cytotoxicity against human HL-60 cells at 5 ug/mL; assay type: functional, cell-based
L1210 = test: Cytotoxicity against mouse L1210 cells at 10 ug/mL; assay type: functional, cell-based
Setaria italica = test: Phytotoxicity against Setaria italica at 50 ug/disk; assay type: functional, organism-based

Measured: Activity

C/C(C=O)=C\Cc1cc(C=O)cc(O)c1O
active: all assays above
